Reference: ChEMBL document CHEMBL1130591, “P2-proline-derived inhibitors of calpain I” (Bioorg Med Chem Lett, 1998)
Non-standard residues stand in square brackets, D forms with d. Residues, ends and D or L forms follow the SMILES beside them. *: point of attachment. Tos = Cc1ccc(S(=O)(=O)*)cc1; Ms = CS(=O)(=O)*

Key:
[1] = molecular target: T1, Calpain-1 catalytic subunit (Homo sapiens, UniProt P07384); assay: Compound was tested for inhibitory activity against recombinant human Calpain 1
T1 sequence (P07384 whole entry): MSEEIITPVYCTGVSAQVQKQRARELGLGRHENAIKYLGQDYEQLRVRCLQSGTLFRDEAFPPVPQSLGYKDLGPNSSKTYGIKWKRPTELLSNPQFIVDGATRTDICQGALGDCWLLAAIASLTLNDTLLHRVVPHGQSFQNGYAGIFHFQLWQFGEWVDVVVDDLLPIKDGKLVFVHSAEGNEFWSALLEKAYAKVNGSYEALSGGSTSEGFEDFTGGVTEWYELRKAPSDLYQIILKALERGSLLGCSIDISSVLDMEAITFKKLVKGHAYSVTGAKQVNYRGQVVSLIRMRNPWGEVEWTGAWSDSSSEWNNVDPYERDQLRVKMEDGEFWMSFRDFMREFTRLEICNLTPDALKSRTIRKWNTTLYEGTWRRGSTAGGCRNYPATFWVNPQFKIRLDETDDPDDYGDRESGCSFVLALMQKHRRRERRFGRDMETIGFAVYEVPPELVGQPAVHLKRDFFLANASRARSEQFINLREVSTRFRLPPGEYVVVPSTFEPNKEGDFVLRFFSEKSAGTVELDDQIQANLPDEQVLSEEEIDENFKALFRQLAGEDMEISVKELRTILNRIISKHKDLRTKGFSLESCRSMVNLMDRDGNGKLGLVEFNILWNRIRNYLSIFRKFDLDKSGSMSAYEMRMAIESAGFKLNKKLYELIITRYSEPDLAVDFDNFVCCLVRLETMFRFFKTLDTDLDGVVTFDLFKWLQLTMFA

[2] = molecular target: Cathepsin B (Homo sapiens, UniProt P07858); assay: Compound was tested for inhibitory activity against Cathepsin B.
[3] = molecular target: T2, Calpain-1 catalytic subunit (Homo sapiens) (UniProt P07384); assay: Compound was tested for inhibitory activity against recombinant human Calpain 1 at concentration of 1 uM
T2 sequence (whole entry): T1 sequence (P07384 whole entry)

[4] = molecular target: Chymotrypsinogen A (Bos taurus) (UniProt P00766); assay: Compound was tested for inhibitory activity against alpha-chymotrypsin at concentration of 1 uM.
[5] = molecular target: Chymotrypsinogen A (Bos taurus) (UniProt P00766); assay: Compound was tested for inhibitory activity against alpha-chymotrypsin at concentration of 10 uM.

Row | Compound | IC50 [1] [nM] | IC50 [2] [nM] | also measured
1 | O=C[C@H](Cc1ccccc1)NC(=O)[C@@H]1CCCN1S(=O)(=O)c1ccccc1 | 41 | 1400 | 
2 | O=C[C@H](Cc1ccccc1)NC(=O)[C@@H]1C[C@@H](OCc2ccccc2)CN1S(=O)(=O)c1ccccc1 | 125 |  | 
3 | O=C[C@H](Cc1ccccc1)NC(=O)[C@@H]1C[C@@H](OS(=O)(=O)c2ccccc2)CN1S(=O)(=O)c1ccccc1 | 13 | 38 | 
4 | Cc1ccc(S(=O)(=O)N2C[C@@H](OS(C)(=O)=O)C[C@@H]2C(=O)N[C@H](C=O)Cc2ccccc2)cc1 |  |  | inhibition [3]: 79%
5 | Cc1ccc(S(=O)(=O)O[C@@H]2C[C@H](C(=O)N[C@H](C=O)Cc3ccccc3)N(S(=O)(=O)c3ccccc3)C2)cc1 |  |  | inhibition [3]: 48%
6 | Cc1ccc(S(=O)(=O)O[C@H]2C[C@H](C(=O)N[C@H](C=O)Cc3ccccc3)N(S(=O)(=O)c3ccc(C)cc3)C2)cc1 |  |  | inhibition [3]: 74%
7 | O=C[C@H](Cc1ccccc1)NC(=O)[C@H]1C[C@H](OS(=O)(=O)c2ccccc2)CN1S(=O)(=O)c1ccccc1 |  |  | inhibition [4]: 42%
8 | CS(=O)(=O)N1CCC[C@H]1C(=O)N[C@H](C=O)Cc1ccccc1 (Ms-Pro-Phe-aldehyde) | 45 | 883 | 
9 | CS(=O)(=O)N1CCC[C@@H]1C(=O)N[C@H](C=O)Cc1ccccc1 (Ms-[dP]-Phe-aldehyde) |  | 3000 | inhibition [5]: 2%
10 | Cc1ccc(S(=O)(=O)N2CCC[C@@H]2C(=O)N[C@H](C=O)Cc2ccccc2)cc1 (Tos-[dP]-Phe-aldehyde) |  | 3600 | inhibition [5]: 12%
11 | Cc1ccc(S(=O)(=O)N2C[C@H](NC(=O)C(F)(F)F)CC2C(=O)N[C@H](C=O)Cc2ccccc2)cc1 (single isomer, unassigned) | 100 |  | 
12 | Cc1ccc(S(=O)(=O)N2C[C@H](C#N)CC2C(=O)N[C@H](C=O)Cc2ccccc2)cc1 (single isomer, unassigned) | 28 | 8700 | inhibition [5]: 6%
13 | Cc1ccc(S(=O)(=O)N2C[C@H](N=[N+]=[N-])CC2C(=O)N[C@H](C=O)Cc2ccccc2)cc1 (single isomer, unassigned) |  | > 10000 | inhibition [5]: 9%
14 | Cc1ccc(S(=O)(=O)N2C[C@H](NS(C)(=O)=O)CC2C(=O)N[C@H](C=O)Cc2ccccc2)cc1 (single isomer, unassigned) |  |  | inhibition [3]: 40%
